According to US20120136005A1, “E[…] THE TREATMENT OF ANXIETY” (MERZ PHARMA GmbH & CO. KGaA, priority 2009, published 2012):
“Also recorded” adds a separate entry of the source.

Assays:
5-HT1a receptor = settings: Schipper et al. 1990; cited from earlier work
[1] = molecular target: T1, human serotonin 5-HT1a receptor (Homo sapiens, UniProt P08908); experiment: GTPγS assay, recombinant CHO-K1 membranes; assay type: biochemical; settings: human recombinant cell lines; FIG. 1
T1 construct: expressed in transfected cells; host or cells: CHO-K1 (membranes)
T1 sequence (P08908 1-422): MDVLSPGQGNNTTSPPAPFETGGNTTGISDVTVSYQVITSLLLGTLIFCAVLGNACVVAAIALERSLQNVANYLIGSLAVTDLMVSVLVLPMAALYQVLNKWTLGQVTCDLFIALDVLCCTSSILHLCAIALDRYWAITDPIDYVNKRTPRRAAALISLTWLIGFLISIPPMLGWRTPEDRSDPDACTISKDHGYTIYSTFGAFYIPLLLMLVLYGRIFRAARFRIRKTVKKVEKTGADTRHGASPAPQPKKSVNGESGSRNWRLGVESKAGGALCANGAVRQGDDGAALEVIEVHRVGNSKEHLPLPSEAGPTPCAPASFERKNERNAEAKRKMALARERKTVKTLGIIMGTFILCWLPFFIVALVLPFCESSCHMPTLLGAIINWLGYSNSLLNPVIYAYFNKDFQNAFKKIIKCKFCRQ
Method: (§1) Eltoprazine was tested for activity on the human serotonin 5-HT1a and 5-HT1b receptors using a GTPγS assay. Recombinant membranes obtained from CHO-K1 cells expressing either the 5-HT1a or 5-HT1b receptors were mixed with GDP (volume:volume) and incubated for at least 15 min on ice. In parallel, GTPγ[35S] was mixed with the beads (volume:volume) just before starting the reaction. The following reagents were successively added in the wells of an Optiplate (Perkin Elmer): 50 μl of test compound, 20 μl of the membranes:GDP mix, 10 μl of assay buffer (for agonist testing) and 20 μl of the GTPγ[35S]:beads mix. The plates were covered with a top seal, shaken on an orbital shaker for 2 min, and then incubated for 1 h at room temperature. Then the plates were centrifuged for 10 min at 2000 rpm, incubated at room temperature 1 h and counted for 1 min/well with a PerkinElmer TopCount reader.

[2] = molecular target: T2, human serotonin 5-HT1b receptor (Homo sapiens, UniProt P28222); experiment: GTPγS assay, recombinant CHO-K1 membranes; assay type: biochemical; settings: human recombinant cell lines; FIG. 1
T2 construct: expressed in transfected cells; host or cells: CHO-K1 (membranes)
Method: as §1

[3] = Rodgers et al., 1992; Rocha et al., 1994; cited from earlier work
[4] = tested on: 5-HT2c (initially designated 5-HT1c); settings: Schipper et al. 1990; cited from earlier work
Sprague-Dawley rats [5] = experiment: Fear potentiated startle; assay type: in vivo; settings: acute treatment
Method: For contextual fear conditioning, open field, fear potentiated startle and elevate plus maze, experimentally naive adult male Sprague-Dawley rats (250-300 g; Janvier, France) were housed in groups of four per cage. Colony room temperature and humidity were maintained respectively at 20±1° C. and 60±3%. Food and water were available ad libitum and the animals were kept under an alternating 12 h/12 h day-night cycle (lights on at 07.00) for at least 6 days before the experiments were started. All experiments were conducted during the light period of the day-night cycle. For the Vogel test, male experimentally naive Wistar rats (180-220 g, State Breeding Farm “Rappolovo”, St. Petersburg, Russia; N=109) were used. Each animal was used only once.
Eltoprazine hydrochloride was dissolved in sterile water. Administration of eltoprazine or vehicle (sterile water) was done s.c. (0.078 to 1.25 mg/kg) once, 60 minutes (30 min in the Vogel test) prior to start of the behavioural assay.

Sprague-Dawley rats [6] = experiment: Elevated plus maze; assay type: in vivo; settings: doses of 0.3125 and 1.25 mg/kg s.c.; FIG. 6
Method: For contextual fear conditioning, open field, fear potentiated startle and elevate plus maze, experimentally naive adult male Sprague-Dawley rats (250-300 g; Janvier, France) were housed in groups of four per cage. Colony room temperature and humidity were maintained respectively at 20±1° C. and 60±3%. Food and water were available ad libitum and the animals were kept under an alternating 12 h/12 h day-night cycle (lights on at 07.00) for at least 6 days before the experiments were started. All experiments were conducted during the light period of the day-night cycle. […]
The elevated plus maze, made from black polypropylene, consists of two open arms (50.8 cm×10.2 cm surrounded by 1.3 cm walls) and two enclosed arms (50.8×10.2 cm and 40.6 cm high walls), which extended form central platform (10.2×10.2 cm). […] Breaks of photo beam are recorded and analysed automatically using an IBM-PC running MED-PC software version IV (Med Associates). […] During the following 5 min period the number of entries into closed and open arms as well as time spent in each type of arm is recorded. An arm entry is recorded when all four paws entering the arm. The obtained results are expressed as mean±S.E.M. percent entries or percent time spent in open arms. […]
Percent of time spent in open arm are taken for statistical analysis. Data are analysed by one-way ANOVA followed by Dunnett's test.

T2 sequence (P28222 whole entry): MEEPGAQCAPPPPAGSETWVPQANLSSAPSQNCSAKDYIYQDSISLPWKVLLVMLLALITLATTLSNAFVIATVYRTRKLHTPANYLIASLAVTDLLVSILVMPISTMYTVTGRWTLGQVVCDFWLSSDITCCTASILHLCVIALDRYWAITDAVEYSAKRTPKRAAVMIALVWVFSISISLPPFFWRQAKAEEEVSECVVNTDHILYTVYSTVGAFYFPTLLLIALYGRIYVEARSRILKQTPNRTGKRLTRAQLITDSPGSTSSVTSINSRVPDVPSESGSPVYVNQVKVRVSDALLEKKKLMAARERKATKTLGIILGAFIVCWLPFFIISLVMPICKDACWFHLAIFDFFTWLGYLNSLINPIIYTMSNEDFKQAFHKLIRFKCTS

## c1cc2c(c(N3CCNCC3)c1)OCCO2 [eltoprazine, 1-(2,3-dihydro-1,4-benzodioxin-5-yl)piperazine]
5-HT1a receptor
  effect on 5-HT1a receptor: agonistic effect
[1]
  functional activity at 5-HT1a receptor: partial agonistic action
[2]
  functional activity at 5-HT1b receptor: partial agonistic action
[3]
  effect in the elevated plus maze, previous data: anxiogenic-like effects
[4]
  effect on 5-HT2c: antagonistic
Sprague-Dawley rats [5]
  effect in fear potentiated startle, first experiment: anxiolytic-like effect
Sprague-Dawley rats [5]; same doses
  effect in fear potentiated startle, repetition study: strong trend
Sprague-Dawley rats [6]
  time spent in the open arms of the elevated plus maze: reduced the time spent in the open arms; also recorded: anxiogenic-like effect
